For two compounds, Solubility, VCA potency class and Irritation results are on record in patent US20200230155A1, “TOPICAL CORTICOSTEROID COMPOSITIONS” (Encore Dermatology, Inc., priority 2014, published 2020).

Structures are written as SMILES. Read-outs that look alike come from different tables or passages of the source.

The conditions of series [1]: cited from earlier work.
The test system of series [2] is skin blanching. Conditions: in vivo; cited from earlier work.
Series [3] relates to intact skin of healthy volunteers. Nature of the series: Irritation patch test study under semi-occlusive conditions. Conditions: continuous exposure under semi occlusion, 21 patch applications over 21 days.
Source text: This was a randomized, double-blind, single-center, vehicle-controlled, within-subject comparison patch test study of followings for irritation potential when repeatedly applied to the skin under semi-occlusive conditions in healthy volunteers: • i. […] Vehicle spray (without active agent of Composition 6), • iii.
All subjects received applications of each study product to intact skin at randomly assigned, adjacent sites on the back. Evaluators and subjects were blinded and unaware of the identity of the study product at the patch test sites. The study products were applied under semi-occlusive patch conditions using a 2 cm×2 cm patch. The products were applied to either side of the infrascapular area of the back. Evaluation of dermal reactions at the application sites were assessed clinically using a visual scale that rates the degree of erythema, edema, and other signs of cutaneous irritation.
A total of 21 patch applications were made over a period of 21 days. Irritancy score of each composition was recorded.

For `CCC(=O)OCC(=O)[C@@]1(OC(=O)CC)[C@@H](C)C[C@H]2[C@@H]3CCC4=CC(=O)C=C[C@]4(C)[C@@]3(F)[C@@H](O)C[C@@]21C` [Betamethasone dipropionate, 9-fluoro-11(β),17,21-trihydroxy-16(β)-methylpregna-1,4-diene-3,20-dione 17,21-dipropionate], the Solubility result in series [1] (in acetone) is “freely soluble”; in series [1] (in chloroform), “freely soluble”; in series [1] (in ethanol), “sparingly soluble”; in series [1] (in water), “practically insoluble”. In addition, the VCA potency class entry in series [2] is given as “super potent (Class 1) and/or high potent (Class 2)”.

In the case of `CCCCCCCCCCCCOS(=O)(=O)[O-].[Na+]` [0.2% SLS, Sodium lauryl sulfate], in series [3], the Irritation entry was “Significantly more irritation”.
